The experiment deals with sAPPβ release, SH-SY5Y cells. Description: sAPPβ release assay. As to conditions: compounds incubated 17 h, MSD detection. Type of experiment: cell-based. The protocol:
Thaw cells and seed at a conc. of around 10000 cells/well in DMEM/F-12 with Glutamax, 10% FCS and 1% non-essential amino acids to a 384-well tissue culture treated plate, 100 μL cell susp/well. […] The cell medium was removed, followed by addition of 30 μL compound diluted in DMEM/F-12 with Glutamax, 10% FCS, 1% non-essential amino acids and 1% PeSt to a final conc. of 1% DMSO. The compounds were incubated with the cells for 17 h (overnight) at 37° C., 5% CO2. Meso Scale Discovery (MSD) plates were used for the detection of sAPPβ release. MSD sAPPβ plates were blocked in 1% BSA in Tris wash buffer (40 μL/well) for 1 h on shake at r.t. and washed 1 time in Tris wash buffer (40 μL/well). 20 μL of medium was transferred to the pre-blocked and washed MSD sAPPβ microplates, and the cell plates were further used in an ATP assay to measure cytotoxicity. The MSD plates were incubated with shaking at r.t. for 2 h and the media discarded. 10 μL detection antibody was added (1 nM) per well followed by incubation with shaking at r.t. for 2 h and then discarded. 40 μL Read Buffer was added per well and the plates were read in a SECTOR Imager.

Among the data in patent US8865911B2, “Compounds and their use as BACE inhibitors” (Astrazeneca AB, priority 2010, dated 2014) are IC50 values, retold here.

Turning to `CC#Cc1cncc(-c2ccc3c(c2)C2(N=C(N)C(CC)=N2)[C@]2(CC[C@H](OC)CC2)C3)c1` (single isomer, unassigned) [Example 68 Isomer 1, (1r,4r)-5″-ethyl-4-methoxy-6′-[5-(prop-1-yn-1-yl)pyridin-3-yl]-3′H-dispiro[cyclohexane-1,2′-indene-1′,2″-imidazol]-4″-amine], for the setting “Homo sapiens, SH-SY5Y, 17 h”, the IC50 was determined as 0.38 nM. In other words, the sub-nanomolar range. Regarding `CCC1=NC2(N=C1N)c1cc(-c3cccc(C#N)c3)ccc1C[C@]21CC[C@@H](OC)CC1` (single isomer, unassigned) [Example 71 Isomer 1, 3-[(1r,4r)-4″-amino-5″-ethyl-4-methoxy-3′H-dispiro-[cyclohexane-1,2′-indene-1′,2″-imidazol]-6′-yl]benzonitrile], the concentration for half-maximal inhibition (IC50) (listed as 71 Isomer 1) came to 5.2 nM. This counts as single-digit nanomolar. `CCC1=NC2(N=C1N)c1cc(-c3cccc(C#N)c3)ccc1C[C@]21CC[C@@H](OC)CC1` (single isomer, unassigned) [Example 71 Isomer 2, 3-[(1r,4r)-4″-amino-5″-ethyl-4-methoxy-3′H-dispiro-[cyclohexane-1,2′-indene-1′,2″-imidazol]-6′-yl]benzonitrile] had a half-inhibitory concentration (IC50) (listed as 71 Isomer 2) of 763 nM. This lies in the sub-micromolar range.

The molecule `CO[C@H]1CC[C@]2(CC1)Cc1ccc(C#CC(C)(C)C)cc1C21N=C(C)C(N)=N1` (single isomer, unassigned; isomer 1) [Example 20h Isomer 1, (1r,4r)-6′-(3,3-dimethylbut-1-yn-1-yl)-4-methoxy-5″-methyl-3′H-dispiro[cyclohexane-1,2′-indene-1′,2″-imidazol]-4″-amine] came in with an IC50 of 277 nM. That is a sub-micromolar value. In turn, `CO[C@H]1CC[C@]2(CC1)Cc1ccc(-c3cc(F)cc(C#N)c3)cc1C21N=C(C)C(N)=N1` (single isomer, unassigned; isomer 1) [Example 76 Isomer 1, 3-[(1r,4r)-4″-amino-4-methoxy-5″-methyl-3′H-dispiro[cyclohexane-1,2′-indene-1′,2″-imidazol]-6′-yl]-5-fluorobenzonitrile] displayed an IC50 of 1.2 nM. Compared with the last molecule, the IC50 is about 230-fold lower.

Molecule `CO[C@H]1CC[C@]2(CC1)Cc1ccc(-c3cc(Br)cc(C#N)c3)cc1C21N=C(C)C(N)=N1` (single isomer, unassigned; isomer 1) [Example 94 Isomer 1, 3-[(1r,4r)-4″-Amino-4-methoxy-5″-methyl-3′H-dispiro[cyclohexane-1,2′-indene-1′,2″-imidazol]-6′-yl]-5-bromobenzonitrile] displayed a 50% inhibitory concentration (IC50) of 0.17 nM.

Broadly, the IC50 is the concentration at which inhibition is half-maximal.
